Measured values taken from article PMC11944389, “Electrochemical Analysis and Inhibition Assay of Immune-Modulating Enzyme, Indoleamine 2,3-Dioxygenase” (Pharmaceuticals, 2025).

Biological target: T1, human indoleamine 2,3-dioxygenase 1 (hIDO1) (Homo sapiens, UniProt P14902)
T1 construct: gene IDO1; full-length hIDO1
Assay: electrochemical inhibition assay (voltammetry, purified hIDO1 immobilized on nanoporous gold electrode, with O2 and Trp)
Type: biochemical

T1 sequence (P14902 whole entry): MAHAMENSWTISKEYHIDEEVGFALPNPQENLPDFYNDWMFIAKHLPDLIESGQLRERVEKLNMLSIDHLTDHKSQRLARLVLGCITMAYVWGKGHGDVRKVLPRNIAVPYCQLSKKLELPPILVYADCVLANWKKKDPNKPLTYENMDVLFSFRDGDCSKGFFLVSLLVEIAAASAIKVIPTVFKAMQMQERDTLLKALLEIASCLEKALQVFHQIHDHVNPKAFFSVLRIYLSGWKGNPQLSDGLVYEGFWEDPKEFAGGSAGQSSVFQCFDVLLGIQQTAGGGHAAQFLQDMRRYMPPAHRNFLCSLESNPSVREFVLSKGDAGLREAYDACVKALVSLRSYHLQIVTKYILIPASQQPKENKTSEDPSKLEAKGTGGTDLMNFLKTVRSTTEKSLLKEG

IC50: ~10 nM
Structure (SMILES): CC(C)(C)c1nc(CN2CCN(CC(O)c3ccccc3)CC2)no1 (racemic) [MTS-7, 2-(4-{[5-(2-methyl-2-propanyl)-1,2,4-oxadiazol-3-yl]methyl}-1-piperazinyl)-1-phenylethanol]
